Experimental data as given in patent publication US20140308317A1, “Polymeric Compounds And Methods Of Making And Using The Same” (CELLCEUTIX CORPORATION, priority 2012, published 2014).
Converted amounts (≈) assume the structure as drawn.

Key:
E. Coli ATCC 25922 = assay: Minimum Inhibitory Concentration (MIC), modified microbroth dilution; format: cell-based; conditions: E. coli (25922), overnight incubation (18 hours); for MIC50: Escherichia coli, ATCC25922, read-out: MIC50 E. coli
[1] = test system: Staphylococcus aureus ATCC 27660; assay: as above; format: cell-based; conditions: S. aureus (27660), overnight incubation (18 hours); for MIC50: Staphylococcus aureus, ATCC27660, read-out: MIC50 S. aureus
[2] = test system: Enterococcus faecalis ATCC 29212; assay: as above; format: cell-based; conditions: E. faecalis (29212), overnight incubation (18 hours); for MIC50: Enterococcus faecalis, ATCC29212, read-out: MIC50 E. faecalis
[3] = test system: Pseudomonas aeruginosa ATCC 10145; assay: as above; format: cell-based; conditions: P. aeruginosa (10145), overnight incubation (18 hours); for MIC50: Pseudomonas aeruginosa, ATCC10145, read-out: MIC50 P. Aeruginosa
[4] = test system: Klebsiella pneumoniae ATCC 13883; assay: as above; format: cell-based; conditions: K. pneumoniae (13883), overnight incubation (18 hours); for MIC50: Klebsiella pneumoniae, ATCC13883, read-out: MIC50 K. Pnuemnoiae
[5] = Cytotoxicity colorimetric (tetrazolium) assay; format: cell-based, mouse; conditions: mouse, NIH/3T3 cells, one hour with compound in serum-free media
Experimental: (§1) Cytotoxicity of the compounds was evaluated in a colorimetric assay using a transformed human liver cell line (HepG2, HB-8065) and an embryonic mouse cell line (NIH/3T3 cells, CRL-1658). This assay measures the bioreduction of a novel tetrazolium compound to a soluble formazan product by viable cells. HepG2 cells were seeded in 96 well plates at 2×10^4 cells/well in MEM medium with 10% fetal bovine serum (FBS) 24 hours prior to use. NIH/3T3 cells were seeded in 96 well plates at 2×10^4 cells/well in DMEM medium with 10% bovine calf serum (BCS) 24 hours prior to use. Cell monolayers were rinsed in serum-free media and incubated for one hour with compounds in serum-free media. After incubation, the media is replaced with serum supplemented media and live cells were measured using the Cell Titer 96 Aqueous […] Assay kit (Promega, Madison, Wis.). EC50 values were determined using a four parameter logistic equation: Y=Bottom+(Top-Bottom)/(1+10̂((LogEC50−X)*HillSlope)).
(§2) Actual results from a representative cytotoxicity assay are shown below in Table 2. Data is expressed as EC50 in μg/mL.

[6] = Cytotoxicity colorimetric (tetrazolium) assay; format: cell-based, human; conditions: human, HepG2 cells, one hour with compound in serum-free media
Experimental: as §1, §2

Structure (SMILES)	MIC50 (E. Coli ATCC 25922)	MIC50 [1]	MIC50 [2]	MIC50 [3]	MIC50 [4]	EC50 at 1 h ([5]; NIH/3T3 cells (CRL-1658))	EC50 at 1 h ([6]; HepG2 cells (HB-8065))	EC50 at 1 h [5]	EC50 at 1 h [6]	MIC50 E. coli (E. Coli ATCC 25922)	MIC50 S. aureus [1]	MIC50 E. faecalis [2]	MIC50 P. Aeruginosa [3]	MIC50 K. Pnuemnoiae [4]
NCCCN1c2ccccc2Sc2ccc(Cl)cc21 [Compound 103]	> 100 µg/mL	25 µg/mL (≈ 86 µM)	> 100 µg/mL	> 100 µg/mL	> 100 µg/mL									
NCCCN1c2ccc(N)cc2Sc2ccc(C(F)(F)F)cc21 [Compound 104]	100 µg/mL (≈ 295 µM)	100 µg/mL (≈ 295 µM)	> 100 µg/mL	> 100 µg/mL	> 100 µg/mL									
N=C(N)NCCC#Cc1cc(-c2cc(OCCCNC(=N)N)cc(-c3cc(C#CCCNC(=N)N)cc(C(F)(F)F)c3)c2)cc(C(F)(F)F)c1 [Compound 121]						37 µg/mL (≈ 52.9 µM)								
NCCc1cc(CCN)cc(-c2cc(F)cc(-c3cc(F)cc(-c4cc(CCN)cc(CCN)c4)c3)c2)c1 [Compound 150]								427 µg/mL (≈ 830 µM)	486 µg/mL (≈ 944 µM)					
N=C(N)NCCCOc1cc(OCCCNC(=N)N)cc(-c2ccc3sc4ccc(-c5cc(OCCCN)c(OCCCN)c(OCCCN)c5)cc4c3c2)c1 [Compound 185]										6.25 µg/mL (≈ 7.95 µM)	0.78 µg/mL (≈ 0.992 µM)	1.56 µg/mL (≈ 1.98 µM)	25 µg/mL (≈ 31.8 µM)	12.5 µg/mL (≈ 15.9 µM)
NCCCCn1cc(-c2cccc(-c3cn(CCCCN)nn3)c2)nn1 [Compound 107]										>100 µg/mL	>100 µg/mL	>100 µg/mL	>100 µg/mL	>100 µg/mL
NCCCN1c2ccccc2Sc2ccc(C(F)(F)F)cc21 [Compound 101]	25 µg/mL (≈ 77.1 µM)	25 µg/mL (≈ 77.1 µM)	12.5 µg/mL (≈ 38.5 µM)	> 100 µg/mL	50 µg/mL (≈ 154 µM)	9 µg/mL (≈ 27.7 µM)								
NCCCn1cc(-c2cccc(-c3cn(CCCN)nn3)c2)nn1 [Compound 108]										>100 µg/mL	>100 µg/mL	>100 µg/mL	>100 µg/mL	>100 µg/mL

Continued, in another order:

MIC50 (E. Coli ATCC 25922)	MIC50 [1]	MIC50 [2]	MIC50 [3]	MIC50 [4]	Structure (SMILES)	EC50 at 1 h ([5]; NIH/3T3 cells (CRL-1658))	EC50 at 1 h ([6]; HepG2 cells (HB-8065))	EC50 at 1 h [5]	EC50 at 1 h [6]	MIC50 E. coli (E. Coli ATCC 25922)	MIC50 S. aureus [1]	MIC50 E. faecalis [2]	MIC50 P. Aeruginosa [3]	MIC50 K. Pnuemnoiae [4]
25 µg/mL (≈ 55.5 µM)	12.5 µg/mL (≈ 27.7 µM)	50 µg/mL (≈ 111 µM)	50 µg/mL (≈ 111 µM)	> 50 µg/mL	NC/C=C/c1cc(/C=C/CN)cc(-c2cccc(-c3cc(/C=C/CN)cc(/C=C/CN)c3)c2)c1 [Compound 117]									
25 µg/mL (≈ 46.8 µM)	0.78 µg/mL (≈ 1.46 µM)	3.13 µg/mL (≈ 5.85 µM)	25 µg/mL (≈ 46.8 µM)	12.5 to 25 µg/mL (≈ 23.4 to 46.8 µM)	N=C(N)NCCc1cccc(-c2cc(-c3cccc(-c4cc(-c5cccc(CCNC(=N)N)c5)on4)c3)no2)c1 [Compound 129]	35.8 µg/mL (≈ 66.9 µM)	57 µg/mL (≈ 107 µM)							
12.5 µg/mL (≈ 25.7 µM)	3.13 µg/mL (≈ 6.43 µM)	12.5 µg/mL (≈ 25.7 µM)	50 µg/mL (≈ 103 µM)	> 50 µg/mL	NCCc1cc(C#Cc2cc(C#Cc3cc(CCN)cc(CCN)c3)c(F)cc2F)cc(CCN)c1 [Compound 192]	542 µg/mL (≈ 1110 µM)	554 µg/mL (≈ 1140 µM)							
3.13 µg/mL (≈ 4.18 µM)	1.56 µg/mL (≈ 2.08 µM)	3.13 µg/mL (≈ 4.18 µM)	6.25 µg/mL (≈ 8.35 µM)	6.25 µg/mL (≈ 8.35 µM)	N=C(N)NCC(CNC(=N)N)c1cc(Br)cc(C#Cc2cccc(C#Cc3cc(Br)cc(C(CNC(=N)N)CNC(=N)N)c3)c2)c1 (stereo not shown) [Compound 191]	17.4 µg/mL (≈ 23.3 µM)	70.3 µg/mL (≈ 93.9 µM)							
12.5 µg/mL (≈ 22.1 µM)	0.39 µg/mL (≈ 0.688 µM)	1.56 µg/mL (≈ 2.75 µM)	12.5 µg/mL (≈ 22.1 µM)	25 µg/mL (≈ 44.1 µM)	NCCc1cc(CCN)cc(-c2ccc(-c3cccc(-c4ccc(-c5cc(CCN)cc(CCN)c5)s4)c3)s2)c1 [Compound 138]									
50 µg/mL (≈ 121 µM)	6.25 µg/mL (≈ 15.1 µM)	25 µg/mL (≈ 60.3 µM)	25 µg/mL (≈ 60.3 µM)		NCCCn1cc(-c2ccc3oc4ccc(-c5cnn(CCCN)c5)cc4c3c2)cn1 [Compound 157]	713 µg/mL (≈ 1720 µM)	461 µg/mL (≈ 1110 µM)							
1.56 µg/mL (≈ 2.69 µM)	0.78 µg/mL (≈ 1.34 µM)	0.39 µg/mL (≈ 0.672 µM)	12.5 µg/mL (≈ 21.5 µM)	3.13 µg/mL (≈ 5.39 µM)	NCC(CN)c1cc(Br)cc(C#Cc2cccc(C#Cc3cc(Br)cc(C(CN)CN)c3)c2)c1 [Compound 190]									
6.25 µg/mL (≈ 11 µM)	25 µg/mL (≈ 43.8 µM)		12.5 µg/mL (≈ 21.9 µM)	25 µg/mL (≈ 43.8 µM)	O=C(Nc1ccc(-c2ccc(N3CCNCC3)nc2)cc1F)Nc1ccc(-c2ccc(N3CCNCC3)nc2)cc1F [Compound 141]	404 µg/mL (≈ 708 µM)	24.4 µg/mL (≈ 42.8 µM)							
